Earlier results in patent publication US10709668B2, “Sprinkle formulations of acamprosate” (priority 2015, dated 2020).

Experiments:
[1] = humans
[2] = subjects with autism and fragile x syndrome (WO 2010093859)

CC(=O)NCCCS(=O)(=O)O [acamprosate, 3-(Acetylamino)propylsulfonic acid]
Oral bioavailability [1]: about 11% | Improvement in primary outcomes (CGI-I, CGI-S) [2]: marked improvements
